Experimental data from ChEMBL document CHEMBL4308911, “Elucidating the mode of action for thiophene-based organic D-π-A sensitizers for use in photodynamic therapy” (Bioorg Med Chem, 2019).
Activity calls are given as the source filed them. No cut-off for these calls is given here.

How the values were obtained:
[1] = Dark toxicity against human HeLa cells assessed as reduction in cell viability after 48 hrs by MTT assay; format: cell-based
[2] = system: HeLa; experiment: Phototoxicity against human HeLa cells assessed as reduction in cell viability preincubated for 1 hr followed by LED light irradiation at 8 +/- 0.5 mW/cm2 for 15 mins and measured after 48 hrs by MTT assay; format: functional, cell-based; conditions: light or radiation study
[3] = Drug uptake mitochondria of in human HeLa cells at 10 uM after 1 hr by Mito tracker red-based confocal microscopic analysis; format: ADME
[4] = Drug uptake lysosome of in human HeLa cells at 10 uM after 1 hr by Lyso tracker red-based confocal microscopic analysis; format: ADME, subcellular
[5] = Aggregation property of the compound in potassium phosphate buffer assessed as particle size at 10 uM by DLS method; format: physicochemical
[6] = Drug uptake in human HeLa cells at 20 uM by fluorescence assay; format: ADME, cell-based; conditions: TDE = time-dependent effect
[7] = Drug uptake in human HeLa cells at 20 uM at 37 degC after 1 hr by fluorescence assay; format: ADME, cell-based
[8] = Drug uptake in human HeLa cells at 20 uM at 4 degC after 1 hr by fluorescence assay; format: ADME, cell-based
[9] = Drug uptake in human HeLa cells at 20 uM after 1 hr in presence of lipid raft inhibitor methyl-beta-cyclodextrin by fluorescence assay; format: ADME, cell-based
[10] = Induction of singlet oxygen production irradiated with 425 to 479 nm Nd:YAG laser light measured after 100 nanoseconds post irradiation; format: functional
[11] = Drug uptake in human HeLa cells at 20 uM after 1 hr in presence of sucrose by fluorescence assay; format: ADME, cell-based

| Drug uptake [3] | Drug uptake [4] | Activity [5] | Drug uptake [6] | Drug uptake [7] | Drug uptake [8] | Drug uptake [9] | Drug uptake [11] | Compound | IC50 at 48 h [1] | IC50 [2] | Activity [10] |
| --- | --- | --- | --- | --- | --- | --- | --- | --- | --- | --- | --- |
| Not Active | Not Active | Not Active | – | – | – | – | – | CC(C)(C)OC(=O)/C(C#N)=C/c1ccc(-c2ccc(-c3ccc(N(c4ccccc4)c4ccccc4)cc3)s2)s1 | > 100 µM | > 100 µM | – |
| Active | Active | 1175 nm | – | Active | Not Active | Active | Not Active | N#C/C(=C\c1ccc(-c2ccc(-c3ccc(N(c4ccccc4)c4ccccc4)cc3)s2)s1)C(N)=O | 63.1 µM | 8.8 µM | – |

The next lines start with the compound.

| Compound | Drug uptake [3] | Drug uptake [4] | Activity [5] | Drug uptake [6] | Drug uptake [7] | Drug uptake [8] | Drug uptake [9] | Drug uptake [11] | IC50 at 48 h [1] | IC50 [2] | Activity [10] |
| --- | --- | --- | --- | --- | --- | --- | --- | --- | --- | --- | --- |
| COC(=O)/C(C#N)=C/c1ccc(-c2ccc(-c3ccc(N(c4ccccc4)c4ccccc4)cc3)s2)s1 | Not Active | Not Active | Not Active | – | – | – | – | – | > 100 µM | > 100 µM | – |
| N#C/C(=C\c1ccc(-c2ccc(-c3ccc(N(c4ccccc4)c4ccccc4)cc3)s2)s1)C(=O)O | Active | Active | 175 nm | Tde | Active | Not Active | Not Active | Not Active | 21.9 µM | 0.21 µM | Active |
| O=Cc1ccc(-c2ccc(-c3ccc(N(c4ccccc4)c4ccccc4)cc3)s2)s1 | Not Active | Not Active | Not Active | – | – | – | – | – | 88.9 µM | 9.5 µM | – |
